The text below walks through data of ChEMBL document CHEMBL1201862, “PubChem BioAssay data set” (2004).

What all share (assay): NCI anticancer screen, dose series, 48 h
The test system of experiment [1] is M19-MEL.
The subject of experiment [2] is HOP-18.
The test system of experiment [3] is KM-20L2.
Experiment [4] has as its system SNB-78.
Experiment [5] has as its system DMS-114.
For experiment [6], the system named is DLD-1.
Experiment [7] relates to RXF 631.
Experiment [8] relates to DMS-273.
Experiment [9] concerns XF498.

Each structure is given as a SMILES string.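 Values below derive from 48-hour exposures of cells grown in 96-well plates, with endpoints linearly interpolated between the two concentrations bracketing the appropriate inhibition level. GI50 is the concentration that inhibits growth by half.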 Calls of active or inactive are those of the source. No stated cut-off is given here; in the data, active = GI50 up to about 1.1 µM and inactive = higher.

Take `COC1CC(CC2CCC(C)C(C(C)C(=O)O)O2)OC2(OC(C)(C3CCC(C)(C4OC(C5OC(O)(CO)C(C)CC5C)CC4C)O3)CC2C)C1C` (centres undefined): the GI50 is 239 nM (active) in experiment [1]; 284 nM (active) in experiment [2]; 124 nM (active) in [3]; 1510 nM (inactive) in experiment [4]; < 15.1 nM (active) in [5]; 510 nM (active) in experiment [6]. In addition, the GI50 in [7] was 73.8 nM (active); in [8], 71.9 nM (active); in experiment [9] it was 42.3 nM (active).
